± gives the expanded uncertainty stated by the source.

The conditions of data set [1]: 100 kPa, Liquid; for speed of sound: Frequency=3 MHz, Single path-length method; for mass density: Vibrating tube method.
A short description of data set [2]: xn = mol fraction of the nth substance listed. To be noted: 100 kPa, Liquid, x2 = 0; for speed of sound: Frequency=3 MHz, Single path-length method; for mass density: Vibrating tube method.

`CCC(C)O` (centres undefined) [butan-2-ol]: the speed of sound in data set [1] (293.15 K) came out at 1229.9 ± 6.2 m/s; in data set [1] (298.15 K), 1212.1 ± 6.2 m/s; in data set [1] (303.15 K), 1194.1 ± 6.2 m/s; in data set [1] (308.15 K), 1176 ± 6.2 m/s. For the same molecule, the mass density is 806.952 ± 1.4 kg/m3 in data set [1] (293.15 K), 802.847 ± 1.4 kg/m3 in data set [1] (298.15 K), 798.651 ± 1.4 kg/m3 in data set [1] (303.15 K) and 794.363 ± 1.4 kg/m3 in data set [1] (308.15 K).
Turning to `CCC(C)O` (centres undefined) [butan-2-ol] + CC(C)NC(C)C, the speed of sound was 1229.9 ± 6.2 m/s in data set [2] (293.15 K), 1212.1 ± 6.2 m/s in data set [2] (298.15 K), 1194.1 ± 6.2 m/s in data set [2] (303.15 K) and 1176 ± 6.2 m/s in data set [2] (308.15 K). In addition, the mass density came to 806.952 ± 1.4 kg/m3 in data set [2] (293.15 K), 802.847 ± 1.4 kg/m3 in data set [2] (298.15 K), 798.651 ± 1.4 kg/m3 in data set [2] (303.15 K) and 794.363 ± 1.4 kg/m3 in data set [2] (308.15 K).
With `CCC(C)O` (centres undefined) [butan-2-ol] + CCCCNCCCC, the speed of sound came out at 1229.9 ± 6.2 m/s in data set [2] (293.15 K), 1212.1 ± 6.2 m/s in data set [2] (298.15 K), 1194.1 ± 6.2 m/s in data set [2] (303.15 K) and 1176 ± 6.2 m/s in data set [2] (308.15 K). The mass density in data set [2] (293.15 K) was 806.952 ± 1.4 kg/m3; in data set [2] (298.15 K), 802.847 ± 1.4 kg/m3; in data set [2] (303.15 K), 798.651 ± 1.4 kg/m3; in data set [2] (308.15 K), 794.363 ± 1.4 kg/m3.
For `CCCCNCCCC` [dibutylamine], the speed of sound in data set [1] (293.15 K) came to 1260.1 ± 6.3 m/s; in data set [1] (298.15 K), 1240.1 ± 6.3 m/s; in data set [1] (303.15 K) it was 1220.3 ± 6.3 m/s; in data set [1] (308.15 K), 1200.6 ± 6.3 m/s. Further, the mass density in data set [1] (293.15 K) worked out at 759.579 ± 1.4 kg/m3; in data set [1] (298.15 K), 755.48 ± 1.4 kg/m3; in data set [1] (303.15 K), 751.374 ± 1.4 kg/m3; in data set [1] (308.15 K), 747.268 ± 1.4 kg/m3.
In the case of `CC(C)NC(C)C` [diisopropylamine], the speed of sound in data set [1] (293.15 K) amounted to 1116.4 ± 6.3 m/s; in data set [1] (298.15 K), 1093.8 ± 6.3 m/s; in data set [1] (303.15 K), 1071.1 ± 6.3 m/s; in data set [1] (308.15 K), 1043.5 ± 6.3 m/s. In addition, the mass density was found to be 717.305 ± 1.4 kg/m3 in data set [1] (293.15 K), 712.441 ± 1.4 kg/m3 in data set [1] (298.15 K), 707.55 ± 1.4 kg/m3 in data set [1] (303.15 K) and 702.661 ± 1.4 kg/m3 in data set [1] (308.15 K).
For `CCCC(C)O` (centres undefined) [pentan-2-ol], the speed of sound is given as 1250.3 ± 6.5 m/s in data set [1] (293.15 K), 1232.4 ± 6.5 m/s in data set [1] (298.15 K), 1214.1 ± 6.5 m/s in data set [1] (303.15 K) and 1195.7 ± 6.5 m/s in data set [1] (308.15 K). Moreover, the mass density was determined as 809.399 ± 1.5 kg/m3 in data set [1] (293.15 K), 805.37 ± 1.5 kg/m3 in data set [1] (298.15 K), 801.27 ± 1.5 kg/m3 in data set [1] (303.15 K) and 797.08 ± 1.5 kg/m3 in data set [1] (308.15 K).
Turning to `CCCC(C)O` (centres undefined) [pentan-2-ol] + CC(C)NC(C)C, the speed of sound in data set [2] (293.15 K) turned out to be 1250.3 ± 6.5 m/s; in data set [2] (298.15 K), 1232.4 ± 6.5 m/s; in data set [2] (303.15 K), 1214.1 ± 6.5 m/s; in data set [2] (308.15 K) it was 1195.7 ± 6.5 m/s. Besides, the mass density in data set [2] (293.15 K) is given as 809.399 ± 1.5 kg/m3; in data set [2] (298.15 K), 805.37 ± 1.5 kg/m3; in data set [2] (303.15 K) it was 801.27 ± 1.5 kg/m3; in data set [2] (308.15 K), 797.08 ± 1.5 kg/m3.
Take `CCCC(C)O` (centres undefined) [pentan-2-ol] + CCCCNCCCC: the speed of sound in data set [2] (293.15 K) is recorded as 1250.3 ± 6.5 m/s; in data set [2] (298.15 K) it was 1232.4 ± 6.5 m/s; in data set [2] (303.15 K), 1214.1 ± 6.5 m/s; in data set [2] (308.15 K), 1195.7 ± 6.5 m/s. Besides, the mass density in data set [2] (293.15 K) is recorded as 809.399 ± 1.5 kg/m3; in data set [2] (298.15 K), 805.37 ± 1.5 kg/m3; in data set [2] (303.15 K), 801.27 ± 1.5 kg/m3; in data set [2] (308.15 K), 797.08 ± 1.5 kg/m3.

The values above are taken from the NIST ThermoML archive (doi:10.1016/j.jct.2018.12.012).
